For data set [1], the target named is T1, Glucocorticoid receptor (Homo sapiens, UniProt P04150).
T1 sequence (P04150 whole entry): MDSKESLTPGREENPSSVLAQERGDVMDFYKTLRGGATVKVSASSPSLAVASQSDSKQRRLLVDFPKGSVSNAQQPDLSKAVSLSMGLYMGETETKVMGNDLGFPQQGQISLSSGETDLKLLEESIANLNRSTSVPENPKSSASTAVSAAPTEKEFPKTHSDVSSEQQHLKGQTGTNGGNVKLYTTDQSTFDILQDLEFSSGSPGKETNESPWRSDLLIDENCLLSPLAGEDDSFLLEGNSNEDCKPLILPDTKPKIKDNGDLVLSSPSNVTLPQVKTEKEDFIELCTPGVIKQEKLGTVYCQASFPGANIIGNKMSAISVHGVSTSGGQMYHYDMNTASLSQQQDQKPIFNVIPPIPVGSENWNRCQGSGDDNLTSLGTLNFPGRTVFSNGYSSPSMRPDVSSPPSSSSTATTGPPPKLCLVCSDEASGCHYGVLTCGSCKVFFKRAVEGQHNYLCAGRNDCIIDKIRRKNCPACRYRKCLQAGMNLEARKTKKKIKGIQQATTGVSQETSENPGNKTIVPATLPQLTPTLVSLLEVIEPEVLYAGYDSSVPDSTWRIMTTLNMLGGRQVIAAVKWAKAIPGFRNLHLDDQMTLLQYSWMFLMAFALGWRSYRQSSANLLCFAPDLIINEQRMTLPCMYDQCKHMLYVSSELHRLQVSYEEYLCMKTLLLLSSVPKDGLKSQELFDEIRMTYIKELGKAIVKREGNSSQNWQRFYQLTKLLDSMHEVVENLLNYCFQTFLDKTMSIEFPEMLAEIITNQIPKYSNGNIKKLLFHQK
Put plainly: Binding affinity to human GR.

For data set [2], the target named is T1, Glucocorticoid receptor. Put plainly: Activity at GR expressed in CHO cells assessed as decrease in dexamethasone-stimulated alkaline phosphatase production by GRAF assay. The data set is classed as cell-based.
For data set [3], the system named is Rattus norvegicus. Put plainly: Inhibition of prednisilone-induced glycogen deposition in Sprague-Dawley rat at 100 mg/kg, po. It is filed as functional.
Data set [4] concerns Rattus norvegicus. Put plainly: Liver concentration in Sprague-Dawley rat after 7 hrs at 100 mg/kg, po. The data set is classed as ADME, organism-based. The arrangement: dose 100 mg/kg, route oral. Conditions: in vivo.
The subject of data set [5] is Rattus norvegicus. Nature of the data set: Inhibition of prednisilone-induced lymphopenia in Sprague-Dawley rat at 100 mg/kg, po. The data set is classed as functional.
Data set [6] can be described thus: Stability in rat liver microsomes after 20 mins. The data set is classed as ADME, Microsome. Conditions: read-out: Stability.
The nature of data set [7]: Plasma concentration in Sprague-Dawley rat after 7 hrs at 100 mg/kg, po. The data set is classed as ADME, organism-based. More on the design: dose 100 mg/kg, route oral.
The subject of data set [8] is Rattus norvegicus. Put plainly: Inhibition of prednisilone-stimulated TAT production in Sprague-Dawley rat at 100 mg/kg, po. The data set is classed as functional.
A short description of data set [9]: Protein binding in rat plasma. Conditions: read-out: PPB (converted). The data set is classed as ADME, cell-free.

From ChEMBL document CHEMBL1145292, “Synthesis and activity of novel bile-acid conjugated glucocorticoid receptor antagonists” (Bioorg Med Chem Lett, 2006) come the findings set out here.

Structures are written as SMILES.

On to `CC#C[C@]1(O)CC[C@H]2[C@@H]3CCC4=CC(=O)CCC4=C3[C@@H](c3ccc(SC)cc3)C[C@@]21C`, for which the figures for the IC50 in [1] and in data set [2] were 0.6 nM and 1.8 nM, respectively.

For the molecule `CC#C[C@]1(O)CC[C@H]2[C@@H]3CCC4=CC(=O)CCC4=C3[C@@H](c3ccc(N(C)CCO[C@H]4CC[C@@]5(C)[C@@H](C4)C[C@@H](O)[C@@H]4[C@@H]5C[C@H](O)[C@]5(C)[C@@H]([C@H](C)CCC(=O)O)CC[C@@H]45)cc3)C[C@@]21C`, the inhibition in vivo at 100 mg/kg in [3] was found to be 86%; in data set [5] it was 9%; in [8], 72%. Moreover, the Drug uptake in data set [4] is reported as 26.5%. Also, the results for the IC50 in data set [1] and in data set [2] were 1.2 nM and 10 nM, respectively. Also, the remaining at 20 min in data set [6] came out at 98%. In [7], this molecule had a concentration at 7 h of 4.5 µM. Moreover, in [9], the fraction unbound is 0.041.

With `CC#C[C@]1(O)CC[C@H]2[C@@H]3CCC4=CC(=O)CCC4=C3[C@@H](c3ccc(-c4ccc(OC)cc4)cc3)C[C@@]21C`, the IC50 in data set [1] is 0.7 nM; in data set [2], 4.2 nM. Besides, the remaining at 20 min in data set [6] was 96%.

Consider `CC#C[C@]1(O)CC[C@H]2[C@@H]3CCC4=CC(=O)CCC4=C3[C@@H](c3ccc(OC)cc3C)C[C@@]21C`, for which the figures for the half-maximal inhibitory concentration (IC50) in [1] and in [2] were 9 nM and 32 nM, respectively.

For the molecule `CC#C[C@]1(O)CC[C@H]2[C@@H]3CCC4=CC(=O)CCC4=C3[C@@H](c3c(F)cc(OC)cc3F)C[C@@]21C`, the IC50 worked out at 0.7 nM in data set [1] and 10.1 nM in data set [2].

For the molecule `CC#C[C@]1(O)CC[C@H]2[C@@H]3CCC4=CC(=O)CCC4=C3[C@@H](c3cc(C)c(OC)c(C)c3)C[C@@]21C`, the figures for the IC50 in data set [1] and in data set [2] were 0.4 nM and 2.8 nM, respectively.

The molecule `CC#C[C@]1(O)CC[C@H]2[C@@H]3CCC4=CC(=O)CCC4=C3[C@@H](c3cc(OC)c(OC)c(OC)c3)C[C@@]21C` came in with an IC50 in [1] of 60.7 nM.

With `CC#C[C@]1(O)CC[C@H]2[C@@H]3CCC4=CC(=O)CCC4=C3[C@@H](c3c(F)cc(OC)cc3OC)C[C@@]21C`, the IC50 turned out to be 6.1 nM in data set [1] and 43 nM in data set [2].

Regarding `CC#C[C@]1(O)CC[C@H]2[C@@H]3CCC4=CC(=O)CCC4=C3[C@@H](c3ccc(OC)cc3)C[C@@]21C`, the figures for the IC50 in data set [1] and in data set [2] were 0.9 nM and 7.6 nM, respectively.

In the case of `CC#C[C@]1(O)CC[C@H]2[C@@H]3CCC4=CC(=O)CCC4=C3[C@@H](c3cc(F)c(OC)cc3F)C[C@@]21C`, the IC50 stood at 3.2 nM in data set [1] and 15 nM in data set [2].

Regarding `CC#C[C@]1(O)CC[C@H]2[C@@H]3CCC4=CC(=O)CCC4=C3[C@@H](c3ccc(Oc4ccccc4)cc3)C[C@@]21C`, the values for the IC50 in [1] and in data set [2] were 1.5 nM and 18.8 nM, respectively.

Molecule `CC#C[C@]1(O)CC[C@H]2[C@@H]3CCC4=CC(=O)CCC4=C3[C@@H](c3ccc(OC)c(C)c3)C[C@@]21C` displayed a Drug uptake in data set [4] of 18.1%. Further, the inhibition in vivo at 100 mg/kg is 67% in [5] and 97% in data set [8]. For the same molecule, the IC50 in data set [1] was 0.1 nM; in data set [2] it was 1.1 nM. The remaining at 20 min in data set [6] amounted to 87%. In data set [7], this molecule gave a concentration at 7 h of 4.8 µM.

In the case of `C=CCOc1c(C)cc([C@H]2C[C@@]3(C)[C@@H](CC[C@@]3(O)C#CC)[C@@H]3CCC4=CC(=O)CCC4=C32)cc1Cl`, the IC50 in data set [1] came out at 1.5 nM; in [2], 20.9 nM.

In data set [1], `CC#C[C@]1(O)CC[C@H]2[C@@H]3CCC4=CC(=O)CCC4=C3[C@@H](c3c(OC)cc(OC)cc3OC)C[C@@]21C` displayed an IC50 of 481 nM.

For the molecule `CC#C[C@]1(O)CC[C@H]2[C@@H]3CCC4=CC(=O)CCC4=C3[C@@H](c3ccc(OCCO[C@H]4CC[C@@]5(C)[C@@H](C4)C[C@@H](O)[C@@H]4[C@@H]5C[C@H](O)[C@]5(C)[C@@H]([C@H](C)CCC(=O)O)CC[C@@H]45)c(C)c3)C[C@@]21C`, the inhibition in vivo at 100 mg/kg in [3] was 0%; in [5], 20%; in data set [8], 31%. In addition, the Drug uptake in data set [4] amounted to 22.2%. The IC50 in data set [1] is 3.1 nM; in data set [2], 30.7 nM. The remaining at 20 min in [6] is 95%. Further, the concentration at 7 h in data set [7] worked out at 4.5 µM. Moreover, the fraction unbound in [9] was 0.017.

As to `CC#C[C@]1(O)CC[C@H]2[C@@H]3CCC4=CC(=O)CCC4=C3[C@@H](c3cc(C)c(OCCO[C@H]4CC[C@@]5(C)[C@@H](C4)C[C@@H](O)[C@@H]4[C@@H]5C[C@H](O)[C@]5(C)[C@@H]([C@H](C)CCC(=O)O)CC[C@@H]45)c(C)c3)C[C@@]21C`, the results for the inhibition in vivo at 100 mg/kg in [3], in data set [5] and in data set [8] were 12%, 0% and 0%, respectively. In addition, the concentration for half-maximal inhibition (IC50) was determined as 4.9 nM in data set [1] and 200 nM in data set [2].

Regarding `C=CCOc1ccc([C@H]2C[C@@]3(C)[C@@H](CC[C@@]3(O)C#CC)[C@@H]3CCC4=CC(=O)CCC4=C32)cc1Cl`, the IC50 in data set [1] amounted to 0.4 nM; in data set [2] it was 4.7 nM.

As for `CC#C[C@]1(O)CC[C@H]2[C@@H]3CCC4=CC(=O)CCC4=C3[C@@H](c3ccc(-c4ccc(OCCO[C@H]5CC[C@@]6(C)[C@@H](C5)C[C@@H](O)[C@@H]5[C@@H]6C[C@H](O)[C@]6(C)[C@@H]([C@H](C)CCC(=O)O)CC[C@@H]56)cc4)cc3)C[C@@]21C`, the values for the inhibition in vivo at 100 mg/kg in [3], in data set [5] and in [8] were 51%, 40% and 44%, respectively. Besides, the 50% inhibitory concentration (IC50) is 2.5 nM in data set [1] and 23.5 nM in data set [2]. The remaining at 20 min in data set [6] was determined as 100%.

Turning to `CC#C[C@]1(O)CC[C@H]2[C@@H]3CCC4=CC(=O)CCC4=C3[C@@H](c3ccc(O)c(C)c3)C[C@@]21C`, the IC50 in data set [1] came to 4.5 nM; in data set [2] it was 28.6 nM.

With `CC#C[C@]1(O)CC[C@H]2[C@@H]3CCC4=CC(=O)CCC4=C3[C@@H](c3ccc(N(C)C)cc3)C[C@@]21C` [MIFEPRISTONE], the inhibition in vivo at 100 mg/kg worked out at 77% in [3], 104% in [5] and 101% in data set [8]. Moreover, the Drug uptake in [4] turned out to be 26.5%. Besides, the remaining at 20 min in [6] was 70%. This molecule also showed a concentration at 7 h in data set [7] of 3.9 µM. Moreover, in data set [9], the fraction unbound was 0.044.
